Results published in US20220249643A1, “ANTI-NEOPLASTIC COMBINED PHARMACEUTICAL COMPOSITION AND APPLICATION THEREOF” (priority 2019, published 2022).
Entries after “also recorded” stand apart in the source; their conditions may differ. Where two headings read alike, the source gives them in different places.

Assays:
[1] = test system: mouse Lewis lung carcinoma (LLC); format: in vivo, C57BL/6 mice; conditions: vs Con
[2] = test system: mouse Lewis lung carcinoma (LLC); format: in vivo, C57BL/6 mice; conditions: for Significance, survival (intergroup comparison): vs Con
Plasmodium yoelii = experiment: Infection rate of Plasmodium (parasitemia) in tumor-bearing mice, Plasmodium yoelii; format: in vivo
[3] = format: in vivo, C57BL/6 mice
From the text: The effects of the chemotherapeutic agent and Plasmodium infection on the weight of tumor-bearing mice were observed.

[4] = Example 1, GEM 100 mg/kg ip on day 3
[5] = Example 1, GEM 100 mg/kg ip on day 6
[6] = Example 2, GEM divided 50 mg/kg ip day 6 and day 13
[7] = Example 2, GEM single dose 100 mg/kg ip day 6
[8] = Example 3, GEM 50 mg/kg ip day 6 and day 13, Py day 7
[9] = Example 4, GEM 50 mg/kg ip day 6 and day 13, Pc day 7
[10] = Example 5, CTX 20 mg/kg×3 ip day 6, 13, 20, Py day 7
[11] = Example 6, CTX 20 mg/kg×3 ip day 6, 13, 20, Pc day 7

Method for Plasmodium chabaudi: (III) Preparation of thin blood film and microscopic examination: about 1-1.5 μL of blood was collected from tails of mice and smeared on slides so that a long tongue-shaped thin blood film with a length of 2.5 cm was prepared and blow-dried with a blower. The blood film was infiltrated with methanol for 1 min, stained with 1× Giemsa stain for 30 min, rinsed with tap water and blow-dried. The infection rate of Plasmodium was observed by a 100× oil immersion objective. Changes of the infection rate of Plasmodium were observed.
(V) Inoculation of tumor-bearing mice: 7 days after tumor was subcutaneously inoculated, each mouse was inoculated with 0.2 mL of Plasmodium, that is, 5×10^5 Plasmodium parasites.
(III) Statistics of the infection rate of Plasmodium: the infection rate of Plasmodium was evaluated by a percentage of red blood cells infected with Plasmodium in mice, where the calculation formula was (the number of red blood cells infected with Plasmodium/a total number of red blood cells)×100%. Specific procedures were as follows: blood was taken from tail veins and smeared on a slide, fixed with methanol, and stained with Giemsa stain. The number of red blood cells infected with Plasmodium and the total number of red blood cells were observed under a microscope. The total number of red blood cells was about 1000.

[NH2][Pt]([NH2])([Cl])[Cl] [DDP, cis-platinum]
Significance, tumor growth (intergroup comparison) ([1]; Example 8, DDP 1 mg/kg×7 ip every two days from day 7, Py day 7): ** (“**” represents p<0.01)
median survival time ([2]; Example 8, DDP 1 mg/kg×7 ip, Py day 7): 30 days
effect on Plasmodium infection (parasitemia) (Plasmodium yoelii; Example 8, DDP 1 mg/kg×7 ip, vs single Plasmodium yoelii group): inhibitory effect on Plasmodium

Nc1ccn([C@@H]2O[C@H](CO)[C@@H](O)C2(F)F)c(=O)n1 [GEM, gemcitabine]
Significance, tumor growth (intergroup comparison) [1, 4]: ** (“**” represents p<0.01)
Significance, tumor growth (intergroup comparison) [1, 5]: ** (“**” represents p<0.01)
Significance, tumor growth (intergroup comparison) [1, 6]: ** (“**” represents p<0.01)
Significance, tumor growth (intergroup comparison) [1, 7]: ** (“**” represents p<0.01)
Significance, tumor growth (intergroup comparison) [1, 8]: ** (“**” represents p<0.01)
Significance, tumor growth (intergroup comparison) [1, 9]: ** (“**” represents p<0.01)
median survival time [2, 4]: 34.5 days
median survival time [2, 5]: 33 days
Significance, survival (intergroup comparison) [2, 4]: * (“*” represents p<0.05)
Significance, survival (intergroup comparison) [2, 5]: ** (“**” represents p<0.01)
median survival time [2, 6]: 38.5 days
median survival time [2, 7]: 33 days
median survival time [2, 8]: 36 days
Significance, survival (intergroup comparison) [2, 8]: ** (“**” represents p<0.01)
median survival time [2, 9]: 35 days
effect on Plasmodium infection (Plasmodium yoelii; Example 1, GEM 100 mg/kg ip day 3 or day 6): certain inhibitory effect on Plasmodium yoelii but will not eliminate Plasmodium
effect on Plasmodium infection (Plasmodium yoelii; Example 2, GEM single dose or divided doses, total 100 mg/kg): certain inhibitory effect on Plasmodium
effect on Plasmodium infection (Plasmodium yoelii; Example 3, GEM 50 mg/kg ip day 6 and day 13): certain inhibitory effect on Plasmodium yoelii but will not eliminate Plasmodium yoelii
effect on weight of tumor-bearing mice ([3]; Example 1, GEM 100 mg/kg ip, Py day 7): affected little
effect on weight of tumor-bearing mice ([3]; Example 2, GEM total 100 mg/kg ip, Py day 7): affected little
effect on weight of tumor-bearing mice [3, 8]: affected little
effect on weight of tumor-bearing mice [3, 9]: affected little
effect on Plasmodium infection (Plasmodium chabaudi; Example 4, GEM 50 mg/kg ip day 6 and day 13): inhibitory effect on Plasmodium chabaudi but will not eliminate Plasmodium

CO[C@@]12[C@H](COC(N)=O)C3=C(C(=O)C(C)=C(N)C3=O)N1C[C@@H]1N[C@@H]12 [mitomycin]
effect on Plasmodium infection (Plasmodium yoelii; Example 9, MMC low, medium, high dosage, the higher concentration, the more obvious): certain inhibitory effect on Plasmodium
effect on weight of tumor-bearing mice ([3]; Example 9, three combined treatment groups): affected little

Cc1c(O)cccc1C(=O)N[C@@H](CSc1ccccc1)[C@H](O)CN1C[C@H]2CCCC[C@H]2C[C@H]1C(=O)NC(C)(C)C [NFV, nelfinavir]
Significance, tumor growth (intergroup comparison) ([1]; Example 12, NFV 400 mg/kg×10, intraperitoneal injection, from day 10, Py day 7): ** (“**” represents p<0.01)
median survival time ([2]; Example 12, NFV 400 mg/kg×10 from day 10, Py day 7): 34 days
effect on Plasmodium infection (Plasmodium yoelii; Example 12, NFV 400 mg/kg×10): relatively small effect on Plasmodium
toxic and side effects on tumor-bearing mice ([3]; Example 12, NFV 400 mg/kg×10): will not increase toxic and side effects on tumor-bearing mice
effect on weight of tumor-bearing mice ([3]; Example 12, continuous administration of nelfinavir alone): relatively small effect on the weight of tumor-bearing mice

Nc1nc2[nH]cc(CCc3ccc(C(=O)N[C@@H](CCC(=O)O)C(=O)O)cc3)c2c(=O)[nH]1 [PEM, pemetrexed]
Significance, tumor growth (intergroup comparison) ([1]; Example 7, PEM 20 mg/kg×6 ip day 3, 7, 10, 14, 17, 21, Py day 7): ** (“**” represents p<0.01)
median survival time ([2]; Example 7, PEM 20 mg/kg×6 ip, Py day 7): 32.5 days
effect on Plasmodium infection (Plasmodium yoelii; Example 7, PEM 20 mg/kg×6 ip): relatively small effect on Plasmodium; also recorded: no inhibitory effect on Plasmodium yoelii

O=P1(N(CCCl)CCCl)NCCCO1 (centres unmarked) [CTX, cyclophosphamide]
Significance, tumor growth (intergroup comparison) [1, 10]: * (“*” represents p<0.05)
Significance, tumor growth (intergroup comparison) [1, 11]: * (“*” represents p<0.05)
median survival time [2, 10]: 37 days
Significance, survival (intergroup comparison) ([2]; Example 5): ** (“**” represents p<0.01)
median survival time [2, 11]: 39.5 days
Significance, survival (intergroup comparison) ([2]; Example 6): * (“*” represents p<0.05)
effect on Plasmodium infection (Plasmodium yoelii; Example 5, CTX 20 mg/kg×3 ip): relatively small effect on Plasmodium
effect on weight of tumor-bearing mice ([3]; Example 5, CTX 20 mg/kg×3 ip, Py day 7): affected little
effect on weight of tumor-bearing mice ([3]; Example 6, CTX 20 mg/kg×3 ip, Pc day 7): affected little
effect on Plasmodium infection (Plasmodium chabaudi; Example 6, CTX 20 mg/kg×3 ip): relatively small effect on Plasmodium chabaudi

CC(=O)O[C@@]12CO[C@@H]1C[C@H](O)[C@@]1(C)C(=O)[C@H](O)C3=C(C)[C@@H](OC(=O)[C@H](O)[C@@H](NC(=O)OC(C)(C)C)c4ccccc4)C[C@@](O)([C@@H](OC(=O)c4ccccc4)[C@H]21)C3(C)C [docetaxel]
effect on Plasmodium infection (Plasmodium yoelii; Example 10, DTX high dosage 2 mg/kg×3): significantly inhibit Plasmodium
effect on Plasmodium infection (Plasmodium yoelii; Example 10, DTX low dosage 2.2 mg/kg×3): relatively small effect on Plasmodium
effect on Plasmodium infection (Plasmodium yoelii; Example 10, DTX medium dosage 6.7 mg/kg×3): significantly inhibit Plasmodium
effect on weight of tumor-bearing mice ([3]; Example 10, in the combined therapy, DTX high dosage): very significant effect in reducing the weight of the tumor-bearing mice
effect on weight of tumor-bearing mice ([3]; Example 10, in the combined therapy, DTX low dosage): relatively small effects
effect on weight of tumor-bearing mice ([3]; Example 10, in the combined therapy, DTX medium dosage): relatively small effects

COc1cc([C@@H]2c3cc4c(cc3[C@@H](O[C@@H]3O[C@@H]5CO[C@@H](C)O[C@H]5[C@H](O)[C@H]3O)[C@H]3COC(=O)[C@H]23)OCO4)cc(OC)c1O [etoposide]
effect on Plasmodium infection (Plasmodium yoelii; Example 11, VP16 low and high dosage): obvious inhibitory effect on Plasmodium
